# Key:
# Type in all cases: functional, Homo sapiens
# SCLC [1] = assay: Tested for induction of SSAT activity in H82 SCLC cells following treatment with 10 uM BESpm
# LCLC = assay: Tested for induction of SSAT activity in H157 LCLC cells following treatment with 10 uM of the BESpm
# SCLC [2] = assay: Tested for induction of SSAT activity in H82 SCLC cells following treatment with 10 uM of the BESpm
Structure (SMILES),SSAT (SCLC [1]) [pmol/min/mg],SSAT (LCLC) [pmol/min/mg],SSAT (SCLC [2]) [pmol/min/mg]
Br.Br.Br.Br.CCNCCCNCCCCNCCCNCC,22.7,38300,–
Br.Br.Br.Br.C#CCNCCCNCCCNCCCNCC,–,19100,19.8
Br.Br.Br.Br.CCNCCCNCCCNCCCNCC1CC1,–,42800,47.1

# Reference: ChEMBL document CHEMBL1126941, “Synthesis and evaluation of unsymmetrically substituted polyamine analogues as modulators of human spermidine/spermine-N1-acetyltransferase (SSAT) and as potential antitumor agents” (1993)
